Measured values taken from patent US20230083973A1, “SUBSTITUTED CYCLOPROPYL-2,2'-BIP[…], ANALOGUES THEREOF, AND METHODS USING SAME” (priority 2019, published 2023).
pEC50: −log10 of the molar value. Like-named read-outs stand apart in the source and are kept apart here.

Test system: HBsAg
Experiment: HBsAg assay: inhibition of HBsAg in HepG2.2.15 cells (chemiluminescence immunoassay of supernatant)
Format: cell-based, hepatitis B virus
Details: HBsAg in supernatant at day 6 after exposure to compound, 0.5% DMSO
Method in brief: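 Secreted HBsAg quantified by CLIA in day-6 supernatants of HepG2.2.15 cultures given compound dilutions at 0.5% final DMSO, with one compound/medium replenishment after 2–3 days. Dose-response fits gave EC50 (50% inhibition); viability checked separately by CellTiter-Glo.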

[1] = Hepatitis B virus, HepG2.2.15, 144 h, read-out: sAg EC50, HepG2.2.15 cells
[2] = read-out: sAg EC50, HepG2.2.15 cells

Row | SMILES | pEC50 [1] | pEC50 [2]
1 | COc1cc(C2CC2c2cnc(-c3ncccn3)nc2C)ccc1F (single isomer, unassigned) [Example 17, trans-5-(2-(4-Fluoro-3-methoxyphenyl)cyclopropyl)-4-methyl-2,2′-bipyrimidine] | 6.19 | 
2 | Fc1ccc(C2CC2c2cnc(-c3ncccn3)nc2)cc1Cl (single isomer, unassigned) [Example 30, trans-5-(2-(3-Chloro-4-fluorophenyl)cyclopropyl)-2,2′-bipyrimidine] |  | 7.10
3 | COc1cc(C2CC2c2cnc(-c3ncccn3)c3ccccc23)ccc1F (single isomer, unassigned) [Example 193, trans-4-(2-(4-Fluoro-3-methoxyphenyl)cyclopropyl)-1-(pyrimidin-2-yl)isoquinoline] | 4.37 | 
4 | CO[C@@H]1CCN(c2cc(C3CC3c3cnc(-c4ncccn4)nc3)cc(Cl)c2F)C1 (single isomer, unassigned) [Example 110] | 6.72 | 
5 | CN(CCO)c1cc([C@@H]2C[C@H]2c2cnc(-c3ncccn3)nc2)cc(F)c1F (relative stereo) [Example 244, trans-2-((5-(2-([2,2′-Bipyrimidin]-5-yl)cyclopropyl)-2,3-difluorophenyl)(methyl)amino)ethan-1-ol] | 7.04 | 
6 | COc1c(F)ccc(C2CC2c2cnc(-c3ncccn3)nc2)c1F (single isomer, unassigned) [Example 189, trans-5-(2-(2,4-Difluoro-3-methoxyphenyl)cyclopropyl)-2,2′-bipyrimidine] |  | 6.92
7 | COc1cc(C2CC2c2cnc(-c3ncccn3)nc2)cc(C)c1F (single isomer, unassigned) [Example 150, trans-5-(2-(4-Fluoro-3-methoxy-5-methylphenyl)cyclopropyl)-2,2′-bipyrimidine] |  | 6.00
8 | O[C@@H]1CCN(c2cc(C3CC3c3cnc(-c4ncccn4)nc3)cc(F)c2F)C1 (single isomer, unassigned) [Example 105] |  | 7.01
9 | COCCCn1cc2c(F)cc(C3CC3c3cnc(-c4ncccn4)nc3)cc2n1 (single isomer, unassigned) [Example 269, trans-6-(2-([2,2′-Bipyrimidin]-5-yl)cyclopropyl)-4-fluoro-2-(3-methoxypropyl)-2H-indazole] |  | 7.34
10 | Cc1c(C2CC2c2cnc(-c3ncccn3)nc2)ccc(Cl)c1OCC1CC1 (single isomer, unassigned) [Example 61, trans-5-(2-(4-Chloro-3-(cyclopropylmethoxy)-2-methylphenyl)cyclopropyl)-2,2′-bipyrimidine] |  | 6.37
11 | Fc1c(Cl)cc(C2CC2c2cnc(-c3ncccn3)nc2)cc1N1CCCC1 (single isomer, unassigned) [Example 109, trans-5-(2-(3-Chloro-4-fluoro-5-(pyrrolidin-1-yl)phenyl)cyclopropyl)-2,2′-bipyrimidine] |  | 7.60
12 | COc1ccc(C2CC2c2cnc(-c3ncccn3)nc2)c(F)c1 (single isomer, unassigned) [Example 3, trans-5-(2-(2-Fluoro-4-methoxyphenyl)cyclopropyl)-2,2′-bipyrimidine] | 6.72 | 
13 | COc1ccc([C@@H]2C[C@H]2c2cnc(-c3ncccn3)nc2)c2cccnc12 (relative stereo) [Example 173, trans-5-(2-([2,2′-Bipyrimidin]-5-yl)cyclopropyl)-8-methoxyquinoline] | 6.27 | 
14 | COc1cc([C@@H]2C[C@H]2c2cnc(-c3ccccn3)nc2)cc(OC)c1OC (relative stereo) [Example 176, trans-2-(Pyridin-2-yl)-5-(2-(3,4,5-trimethoxyphenyl)cyclopropyl)pyrimidine] | 5.70 | 
15 | COCCCn1cnc2c(F)cc([C@@H]3C[C@H]3c3cnc(-c4ncccn4)nc3)cc21 (relative stereo) [Example 274, trans-6-(2-([2,2′-Bipyrimidin]-5-yl)cyclopropyl)-4-fluoro-1-(3-methoxypropyl)-1H-benzo[d]imidazole] | 7.19 | 
16 | COc1ccc(C2CC2c2cnc(-c3ncccn3)nc2)cc1F (single isomer, unassigned) [Example 12, trans-5-(2-(3-Fluoro-4-methoxyphenyl)cyclopropyl)-2,2′-bipyrimidine] | 6.96 | 
17 | Fc1cc(F)c2nc([C@@H]3C[C@H]3c3cnc(-c4ncccn4)nc3)sc2c1 (relative stereo) [Example 270, trans-2-(2-([2,2′-Bipyrimidin]-5-yl)cyclopropyl)-4,6-difluorobenzo[d]thiazole] | 6.30 | 
18 | c1cnc(-c2ncc([C@@H]3C[C@H]3c3cccc4ccccc34)cn2)nc1 (relative stereo) [Example 166, trans-5-(2-(Naphthalen-1-yl)cyclopropyl)-2,2′-bipyrimidine] | 7.19 | 
19 | COCCCn1cnc2cc([C@@H]3C[C@H]3c3cnc(-c4ncccn4)nc3)cc(F)c21 (relative stereo) [Example 273, trans-5-(2-([2,2′-Bipyrimidin]-5-yl)cyclopropyl)-7-fluoro-1-(3-methoxypropyl)-1H-benzo[d]imidazole] | 7.37 | 

Row | SMILES | pEC50 [1] | pEC50 [2]
20 | COc1cc([C@@H]2C[C@H]2c2cnc(-c3ccccn3)nc2)cc(F)c1F (relative stereo) [Example 174, trans-5-(2-(3,4-Difluoro-5-methoxyphenyl)cyclopropyl)-2-(pyridin-2-yl)pyrimidine] | 7.17 | 
21 | Fc1ccc(C2CC2c2ccnc(-c3ncccn3)n2)cc1F (single isomer, unassigned) [Example 5, trans-4-(2-(3,4-Difluorophenyl)cyclopropyl)-2,2′-bipyrimidine] | 5.30 | 
22 | CS(=O)(=O)N1CCN(c2cc(C3CC3c3cnc(-c4ncccn4)nc3)ccc2F)CC1 (single isomer, unassigned) [Example 41, trans-5-(2-(4-Fluoro-3-(4-(methylsulfonyl)piperazin-1-yl)phenyl)cyclopropyl)-2,2′-bipyrimidine] |  | 5.40
23 | Cc1cc(C2CC2c2cnc(-c3ncccn3)nc2)cc(OCC2CC2)c1Cl (single isomer, unassigned) [Example 49, trans-5-((2-(4-Chloro-3-(cyclopropylmethoxy)-5-methylphenyl)cyclopropyl)-2,2′-bipyrimidine] |  | 6.77
24 | Clc1ccc(C2CC2c2cnc(-c3ncccn3)nc2)cc1N1CCCC1 (single isomer, unassigned) [Example 199, trans-5-(2-(4-Chloro-3-(pyrrolidin-1-yl)phenyl)cyclopropyl)-2,2′-bipyrimidine] |  | 6.85
25 | O[C@H]1CCN(c2cc(C3CC3c3cnc(-c4ncccn4)nc3)cc(Cl)c2F)C1 (single isomer, unassigned) [Example 121] |  | 7.96
26 | COc1cc(C2CC2c2cnc(-c3ncccn3)nc2)c(C)cc1Cl (single isomer, unassigned) [Example 52, trans-5-(2-(4-Chloro-5-methoxy-2-methylphenyl)cyclopropyl)-2,2′-bipyrimidine] |  | 6.00
27 | Fc1ccc(C2CC2c2cnc(-c3ncccn3)nc2)cc1N1CCC(F)(F)C1 (single isomer, unassigned) [Example 44, trans-5-(2-(3-(3,3-Difluoropyrrolidin-1-yl)-4-fluorophenyl)cyclopropyl)-2,2′-bipyrimidine] |  | 6.96
28 | COc1cc(C2CC2c2cnc(-c3ncccn3)nc2-c2ccccc2)ccc1F (single isomer, unassigned) [Example 142, trans-5-(2-(4-Fluoro-3-methoxyphenyl)cyclopropyl)-4-phenyl-2,2′-bipyrimidine] |  | 5.30
29 | Fc1cc(Cl)cc(C2CC2c2cnc(-c3ncccn3)nc2)c1 (single isomer, unassigned) [Example 118, trans-5-(2-(3-Chloro-5-fluorophenyl)cyclopropyl)-2,2′-bipyrimidine] |  | 5.70
30 | COc1cc(C2CC2c2cnc(-c3ncccn3)nc2)cc(F)c1Cl (single isomer, unassigned) [Example 45, trans-5-(2-(4-Chloro-3-fluoro-5-methoxyphenyl)cyclopropyl)-2,2′-bipyrimidine] |  | 6.57
31 | Cc1nc2c(F)cc([C@@H]3C[C@H]3c3cnc(-c4ncccn4)nc3)cc2n1C(C)C (relative stereo) [Example 271, trans-6-(2-([2,2′-Bipyrimidin]-5-yl)cyclopropyl)-4-fluoro-1-isopropyl-2-methyl-1H-benzo[d]imidazole] | 6.60 | 
32 | COc1cc(C2CC2c2cnc(-c3ncccn3)nc2OC)ccc1F (single isomer, unassigned) [Example 80, trans-5-(2-(4-Fluoro-3-methoxyphenyl)cyclopropyl)-4-methoxy-2,2′-bipyrimidine] |  | 7.00
33 | COc1cc(C2CC2c2cnc(-c3ncccn3)nc2)ccc1Cl (single isomer, unassigned) [Example 33, trans-5-(2-(4-Chloro-3-methoxyphenyl)cyclopropyl)-2,2′-bipyrimidine] |  | 7.51
34 | Cn1cnc(COc2cc([C@@H]3C[C@H]3c3cnc(-c4ncccn4)nc3)cc(F)c2F)n1 (relative stereo) [Example 217, trans-5-(2-(3,4-Difluoro-5-((1-methyl-1H-1,2,4-triazol-3-yl)methoxy)phenyl)cyclopropyl)-2,2′-bipyrimidine] | 6.70 | 
35 | Fc1ccc(C2CC2c2cnc(-c3ncccn3)nc2)cc1N1CCCC1 (single isomer, unassigned) [Example 19, trans-5-(2-(4-Fluoro-3-(pyrrolidin-1-yl)phenyl)cyclopropyl)-2,2′-bipyrimidine] | 7.41 | 
36 | COc1cc(C2CC2c2cnc(-c3ncccn3)nc2)cc(F)c1Cl (single isomer, unassigned) [Example 46, trans-5-(2-(4-Chloro-3-fluoro-5-methoxyphenyl)cyclopropyl)-2,2′-bipyrimidine] |  | 7.46
37 | COc1cc(C2CC2c2cnc(-c3ncccn3)nc2)ccc1Cl (single isomer, unassigned) [Example 34, trans-5-(2-(4-Chloro-3-methoxyphenyl)cyclopropyl)-2,2′-bipyrimidine] |  | 6.82
